# Test results published in the RepoRT retention time repository (doi:10.1016/j.jhazmat.2019.121712).
# Test: Thermo Scientific Acclaim RSLC 120 C18, 100 × 2.1 mm, 2.2 µm, 30 °C; A: 90% water + 10% methanol + 0.01% formic acid + 5 mM ammonium formate; B: methanol + 0.01% formic acid + 5 mM ammonium formate; gradient (min/%B) 0.1/1 3/39 14/99.9 16/99.9
# Conditions: stereoisomer not certain
row,SMILES,LC retention time [min]
1,CCCOc1ccc(S(=O)(=O)N2CCN(CCO)CC2)cc1-c1nc2c(CCC)cn(CC)c2c(=O)[nH]1,9.49
2,OC(c1ccccc1)(c1ccccc1)C1CCCCN1 (stereo not drawn),5.78
3,O=C1OCC(O)=C1Cc1ccccc1,5.06
4,CC(C)N1C(=O)N(c2ccccc2)CSC1=NC(C)(C)C,12.2
5,CCOC(=O)c1cn2nc(OP(=S)(OCC)OCC)cc2nc1C,11.4
6,CCCCNc1ccc(C(=O)OCCN(C)C)cc1,6.43
7,O=C(C1CCCCC1)N1CC(=O)N2CCc3ccccc3C2C1 (stereo not drawn),9.32
8,CNC(=O)N(C)c1nc2ccccc2s1,8.26
9,CN(C)CCOc1ccccc1Cc1ccccc1,7.29
10,CNC(=C[N+](=O)[O-])NCCSCc1csc(CN(C)C)n1,2.96
11,CCOP(=S)(OCC)SCSCC,11.4
12,CN(C)C1CSSSC1,3.16
13,CC1CCCCC1NC(=O)Nc1ccccc1 (stereo not drawn),9.37
14,C=C(C)C1CCC(C)=CC1c1c(O)cc(CCCCC)cc1O (stereo not drawn),12.7
15,C=CCN(CC=C)CCc1c[nH]c2ccc(OC)cc12,4.89
16,Nc1nc(=S)c2[nH]cnc2[nH]1,2.53
17,COP(=S)(OC)SCn1nnc2ccccc2c1=O,8.89
18,CCCCCn1nc(C(=O)Nc2cccc3ccccc23)c2ccccc21,13
19,CCC(CC)OC1C=C(C(=O)O)CC(N)C1NC(C)=O (stereo not drawn),4.73
20,CCC(C(N)=O)N1CCCC1=O (stereo not drawn),3.74

row,SMILES,LC retention time [min]
1,O=c1cn[nH][nH]1,5.99
2,CCCN(CCC)C(=O)SCC,10.7
3,Nc1ccc(O)c(C(=O)O)c1,1.63
4,COc1ccc2c3c1OC1C(O)C=CC4C(C2)N(C)CCC341 (stereo not drawn),3.4
5,Cc1ccnc(NS(=O)(=O)c2ccc(N)cc2)n1,3.95
6,CCN(CC)CCCOC(=O)C1(c2ccccc2)CC2CCC1C2 (stereo not drawn),8.54
7,O=S(=O)(O)c1ccc2ccccc2c1,5.44
8,CC(C)(C)NCC(O)COc1cccc2c1SCCC2 (stereo not drawn),6.76
9,COC(=O)c1ccc(C)cc1C1=NC(C)(C(C)C)C(=O)N1 (stereo not drawn),7.16
10,CCOC(=O)C(CCc1ccccc1)NC1CCCN2CCCC(C(=O)O)N2C1=O (stereo not drawn),7.94
11,COc1cc(OC)nc(NC(=O)NS(=O)(=O)c2ncccc2C(=O)N(C)C)n1,6.62
12,NC(=O)N=C(N)N,1.31
13,CCCc1nn(C)c2c(=O)[nH]c(-c3cc(C(=O)CN4CCCCC4)ccc3OCC)nc12,7.14
14,CNC(=O)Oc1cc(C)cc(C)c1,7.78
15,CCC=CCC1=C(C)C(OC(=O)C2C(C=C(C)C(=O)OC)C2(C)C)CC1=O (stereo not drawn),12.2
16,C=CCOc1ccccc1OCC(O)CNC(C)C (stereo not drawn),5.66
17,c1cc2c(cc1CN1CCNCC1)OCO2,4.22
18,CCOP(=S)(OCC)OP(=S)(OCC)OCC,10.8
19,CC(C)C1CCC(C(=O)NC(Cc2ccccc2)C(=O)O)CC1 (stereo not drawn),10.4
20,CCCOc1ccc(S(=O)(=O)N2CCN(CC)CC2)cc1-c1nc(=S)c2c([nH]1)c(CCC)nn2C,10.5

row,SMILES,LC retention time [min]
1,CCc1cc2c(cc1CC)CC(NCC(O)c1ccc(O)c3[nH]c(=O)ccc13)C2 (stereo not drawn),7.9
2,CNC(=O)ON=C(C)C(C)S(C)(=O)=O (stereo not drawn),3.66
3,CCOP(=S)(OCC)SCCS(=O)(=O)CC,8.02
4,CCC(=C(c1ccccc1)c1ccc(OCCN(C)C)cc1)c1ccccc1,11
5,CC(C)c1ccc(NC(N)=O)cc1,7.76
6,COc1ncnc(NS(=O)(=O)c2ccc(N)cc2)c1OC,4.75
7,CN(C)CCCn1c2c(c3ccccc31)CCCCCC2,9.26
8,CCC12CCCN3CCc4c(n(c5ccccc45)C(O)(C(=O)OC)C1)C32 (stereo not drawn),5.04
9,CCOP(=O)(OCC)SCSCC,8.6
10,CN1CCC23c4c5ccc(O)c4OC2C(=O)CCC3C1C5 (stereo not drawn),2.91
11,Cc1ccc(C(C)NC(=O)C(NC(=O)OC(C)C)C(C)C)cc1 (stereo not drawn),9.82
12,CNC(=O)ON=C(C)C(C)SC (stereo not drawn),6.07
13,COC(=O)C(NC(=O)c1cn(CC2CCCCC2)c2ccccc12)C(C)(C)C (stereo not drawn),12.4
14,Cc1c(C(=O)c2cccc3ccccc23)c2cccc3c2n1C(CN1CCOCC1)CO3 (stereo not drawn),10.9
15,CCOP(=S)(OCC)Oc1ccc(S(C)(=O)=O)cc1,8.48
16,C=CCN1CCCC1CNC(=O)c1cc2n[nH]nc2cc1OC (stereo not drawn),3.62
17,CCOP(=S)(OCC)SCSC(C)(C)C,12.2
18,CCCc1nn(C)c2c(=S)nc(-c3cc(S(=O)(=O)N4CCN(CC)CC4)ccc3OCC)[nH]c12,10.6
